# From paper PMC5669199, “CM352 Reduces Brain Damage and Improves Functional Recovery in a Rat Model of Intracerebral Hemorrhage” (Journal of the American Heart Association: Cardiovascular …, 2017)
# What was measured:
# MMP‐7 = biological target: T1, MMP‐7 (Homo sapiens, UniProt P09237); assay: MMP enzyme activity assay; assay type: biochemical
# T1 construct: GenScript (contract testing)
# T1 sequence (P09237 95-267): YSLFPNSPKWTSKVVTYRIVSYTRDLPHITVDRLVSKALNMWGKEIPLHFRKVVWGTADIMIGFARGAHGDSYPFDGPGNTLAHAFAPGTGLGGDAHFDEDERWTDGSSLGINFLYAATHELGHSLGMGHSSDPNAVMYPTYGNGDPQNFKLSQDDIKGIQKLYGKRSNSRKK
# Protocol: Protease stock solutions (10 mmol/L) were diluted with assay buffer to make final test solutions containing no more than 2.0% DMSO. The samples were dispensed into plates; substrate was added and read with PHERAstar PLUS (BMG Labtech, Ortenberg, Germany) plate reader.
# MMP‐12 = biological target: T2, MMP‐12 (Homo sapiens, UniProt P39900); assay: MMP enzyme activity assay; assay type: biochemical; details: read-out: MMP Inhibitory Activity (IC50), MMP‐12
# T2 construct: GenScript (contract testing)
# Protocol: […]. Protease stock solutions (10 mmol/L) were diluted with assay buffer to make final test solutions containing no more than 2.0% DMSO. The samples were dispensed into plates; substrate was added and read with PHERAstar PLUS (BMG Labtech, Ortenberg, Germany) plate reader.
# MMP‐3 = system: MMP‐3; parameters: method as in PMID 25686022; details: previously reported; read-out: MMP Inhibitory Activity (IC50), MMP‐3; cited from earlier work
# MMP‐10 = system: MMP‐10; parameters: method as in PMID 25686022; details: previously reported; read-out: MMP Inhibitory Activity (IC50), MMP‐10; cited from earlier work
# [1] = system: collagenase‐induced mouse model of ICH; parameters: method as in PMID 15800021; details: 100 mg/kg intraperitoneally for 48 hours (not with 1 mg/kg); cited from earlier work
# [2] = system: mouse model of warfarin‐associated ICH; parameters: method as in PMID 21127298; details: cited from earlier work
# T2 sequence (P39900 106-470, species assumed): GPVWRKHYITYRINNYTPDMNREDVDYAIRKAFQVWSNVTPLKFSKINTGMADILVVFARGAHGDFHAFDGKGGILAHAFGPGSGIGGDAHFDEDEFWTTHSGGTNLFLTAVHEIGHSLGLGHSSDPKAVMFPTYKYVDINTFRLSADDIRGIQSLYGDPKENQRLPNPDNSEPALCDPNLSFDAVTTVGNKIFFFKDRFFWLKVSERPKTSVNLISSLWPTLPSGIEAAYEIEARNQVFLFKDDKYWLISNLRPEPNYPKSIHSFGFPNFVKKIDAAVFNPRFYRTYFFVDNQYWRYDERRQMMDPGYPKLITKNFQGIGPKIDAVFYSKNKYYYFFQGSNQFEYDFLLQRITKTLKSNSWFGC
IC50 (MMP‐7) [nM],IC50 (MMP‐12) [nM],Structure (SMILES),IC50 (MMP‐3) [nM],IC50 (MMP‐10) [nM],lesion volume and neurological outcome [1],effect on edema [2]
9,1.2,CNC(=O)[C@H](Cc1c[nH]c2ccccc12)NC(=O)[C@@H](CC(=O)NO)CC(C)C [GM6001],20.7,[…],decrease in lesion volume and improved neurological outcome,
,,"NC[C@H]1CC[C@H](C(=O)O)CC1 [TXA, tranexamic acid]",,,,exacerbates edema
